The nature of test [1]: 3H-heparin binding assay (affinity and capacity). The note with it: for Heparin Capacity: heparin bound at saturation; for Kd: read-out: Heparin Affinity. The method in brief: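 Peptide fragments were bound to PVDF-membrane wells and incubated with 3H-heparin in blocking buffer for 1 h at 4 °C. After washing, bound radioactivity was quantified by liquid scintillation counting, with BSA background subtracted; rBPI23 served as positive control.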

Test [2] concerns E. coli 0111:B4 (smooth) bacteria. In words: Radial diffusion bactericidal assay, E. coli 0111:B4. The format is cell-based. Particulars: radial diffusion; PROBIT analysis; E. coli O111:B4 (smooth).
A further test relates to RAW 264.7 cells. Description: LPS neutralization cellular proliferation assay, RAW 264.7 cells. The format is cell-based, mouse. On the procedure:
In this assay, mouse RAW 264.7 cells (ATCC Accession No. T1B71), maintained in RPMI 1640 media (GIBCO), supplemented with 10 mM HEPES buffer (pH 7.4), 2 mM L-glutamine, penicillin (100U/mL), streptomcin (100 μg/mL), 0.075% sodium bicarbonate, […] 2-mercaptoethanol and 10% fetal bovine serum (Hyclone, Inc., Logan, Utah), were first induced by incubation in the presence of 50U/mL recombinant mouse y-interferon (Genzyme, Cambridge, Mass.) for 24 h prior to assay. Induced cells were then mechanically collected and centrifuged at 500×g at 4° C. and then resuspended in 50 mL RPMI 1640 media (without supplements), re-centrifuged and again resuspended in RPMI 1640 media (without supplements). The cells were counted and their concentration adjusted to 2×10^5 cells/mL and 100 μL aliquots were added to each well of a 96-well microtitre plate. The cells were then incubated for about 15 hours with E. coli O113 LPS (Control Standard. Assoc. of Cape Cod. Woods Hole, Mass.), which was added in 100 μL/well aliquots at a concentration of […] in serum-free RPMI 1640 media (this concentration being the result of titration experiments in which LPS concentration was varied between 50 pg/mL and 100 ng/mL). This incubation was performed in the absence or presence of BPI functional domain peptides in varying concentrations between 25 ng/mL and 50 μg/mL. Recombinant human BPI was used as a positive control at a concentration of 1 μg/mL. Cell proliferation was quantitatively measured by the addition of 1 μCi/well [^3H]-thymidine 5 hours after the time of initiation of the assay. After the 15-hour incubation, labeled cells were harvested onto glass fiber filters with a cell harvester (Inotech Biosystems, EQ-384, Sample Processing and Filter Counting System, Lansing, Mich.).

For test [3], the system named is rough mutant E. coli J5 bacteria. Description: Radial diffusion bactericidal assay, E. coli J5. Type of test: cell-based. Particulars: for pmol added to well to achieve a 30 mm^2 bactericidal zone, E. coli J5 / bactericidal activity (in words): radial diffusion; for pmol added to well to achieve a 30 mm^2 bactericidal zone, E. coli J5: PROBIT analysis, E. coli J5 (rough); for bactericidal activity (in words): E. coli J5; for activity of position 95 substitution variants (in words): activity not further specified. An outline of the steps:
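Wells received 5 or 10 μL of BPI fragment, pre-incubated 3 h at 37 °C. The underlayer agarose carried washed log-phase organisms at 4×10^6 CFU/mL.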

For the next test, the system named is Staphylococcus aureus. Description: Radial diffusion bactericidal assay, Staphylococcus aureus. The format is cell-based. The note with it: radial diffusion; PROBIT analysis; S. aureus.

Converted amounts (≈) assume the structure as drawn. Square brackets hold non-standard residues; d marks the D form. Ends that are not written are not given here. Peptide text beside a SMILES is read from it. 1Nal = N[C@@H](Cc1cccc2ccccc12)C(=O)O

As to `CC[C@H](C)[C@H](N)C(=O)N[C@@H](CCCCN)C(=O)N[C@H](C(=O)N[C@@H](CO)C(=O)NCC(=O)N[C@@H](CCCCN)C(=O)N[C@@H](Cc1cccc2ccccc12)C(=O)N[C@@H](CCCCN)C(=O)N[C@@H](C)C(=O)N[C@@H](CCC(N)=O)C(=O)N[C@@H](Cc1ccccc1)C(=O)N[C@@H](CCCNC(=N)N)C(=O)N[C@@H](Cc1ccccc1)C(=O)N[C@@H](CC(C)C)C(=O)N[C@@H](CCCCN)C(=O)N[C@@H](CCCCN)C(=O)N[C@@H](CO)C(=O)N[C@@H](CCCCN)C(=O)N[C@H](C(=O)NCC(=O)N[C@@H](Cc1c[nH]c2ccccc12)C(=O)N[C@@H](CC(C)C)C(=O)N[C@H](C(=O)N[C@@H](Cc1ccccc1)C(=O)N[C@@H](CC(C)C)C(=O)N[C@@H](Cc1ccccc1)C(=O)N[C@@H](Cc1c[nH]cn1)C(=O)N[C@@H](CCCCN)C(=O)N[C@@H](CCCCN)C(=O)O)[C@@H](C)CC)C(C)C)[C@@H](C)CC` [BPI.98] (H-IKISGK[1Nal]KAQFRFLKKSKVGWLIFLFHKK-OH), in test [1], the “Heparin Capacity” value is recorded as 1678.4 ng and the Kd is 683 nM. Also, the “pmol added to well to achieve a 30 mm^2 bactericidal zone, E. coli O111:B4” value (from here on “pmol added to well … E. coli O111:B4”) in test [2] is recorded as 63,709.98 pmol. In addition, in the test with RAW 264.7 cells, the “EC50 (peptide concentration at which the growth inhibitory effect of LPS was reversed by 50%)” value was determined as 0.16 ± 0.08 µg/mL and the “IC50 (peptide concentration at which RAW cell growth was inhibited by 50%)” value worked out at 16.5 ± 1.9 µg/mL (≈ 4.62 µM). Further, the “pmol added to well to achieve a 30 mm^2 bactericidal zone, E. coli J5” value (“pmol added to well … E. coli J5” for short) in test [3] is listed as 4,384.14 pmol. Besides, the “pmol added to well to achieve a 30 mm^2 bactericidal zone, S. aureus” value (“pmol added to well … S. aureus” below) with Staphylococcus aureus is “b (no detectable activity up to 5 μg/well)”.
As to `CC[C@H](C)[C@H](N)C(=O)N[C@@H](CCCCN)C(=O)N[C@H](C(=O)N[C@@H](CO)C(=O)NCC(=O)N[C@@H](CCCCN)C(=O)N[C@@H](Cc1c[nH]c2ccccc12)C(=O)N[C@@H](CCCCN)C(=O)N[C@@H](C)C(=O)N[C@@H](CCC(N)=O)C(=O)N[C@@H](CCCCN)C(=O)N[C@@H](CCCNC(=N)N)C(=O)N[C@@H](Cc1ccccc1)C(=O)N[C@@H](CC(C)C)C(=O)N[C@@H](CCCCN)C(=O)NCCCC[C@H](NC(=O)[C@H](CCCCN)NC(=O)[C@H](CC(C)C)NC(=O)[C@H](Cc1ccccc1)NC(=O)[C@H](CCCNC(=N)N)NC(=O)[C@H](CCCCN)NC(=O)[C@H](CCC(N)=O)NC(=O)[C@H](C)NC(=O)[C@H](CCCCN)NC(=O)[C@H](Cc1c[nH]c2ccccc12)NC(=O)[C@H](CCCCN)NC(=O)CNC(=O)[C@H](CO)NC(=O)[C@@H](NC(=O)[C@H](CCCCN)NC(=O)[C@@H](N)[C@@H](C)CC)[C@@H](C)CC)C(=O)NCCCC[C@H](NC(=O)[C@H](CCCCNC(=O)[C@H](CCCCN)NC(=O)[C@H](CC(C)C)NC(=O)[C@H](Cc1ccccc1)NC(=O)[C@H](CCCNC(=N)N)NC(=O)[C@H](CCCCN)NC(=O)[C@H](CCC(N)=O)NC(=O)[C@H](C)NC(=O)[C@H](CCCCN)NC(=O)[C@H](Cc1c[nH]c2ccccc12)NC(=O)[C@H](CCCCN)NC(=O)CNC(=O)[C@H](CO)NC(=O)[C@@H](NC(=O)[C@H](CCCCN)NC(=O)[C@@H](N)[C@@H](C)CC)[C@@H](C)CC)NC(=O)[C@H](CCCCN)NC(=O)[C@H](CC(C)C)NC(=O)[C@H](Cc1ccccc1)NC(=O)[C@H](CCCNC(=N)N)NC(=O)[C@H](CCCCN)NC(=O)[C@H](CCC(N)=O)NC(=O)[C@H](C)NC(=O)[C@H](CCCCN)NC(=O)[C@H](Cc1c[nH]c2ccccc12)NC(=O)[C@H](CCCCN)NC(=O)CNC(=O)[C@H](CO)NC(=O)[C@@H](NC(=O)[C@H](CCCCN)NC(=O)[C@@H](N)[C@@H](C)CC)[C@@H](C)CC)C(=O)NCCC(=O)O)[C@@H](C)CC` [MAP.1, β-alanyl-Nα,Nε-substituted-{Nα,Nε(BPI.2)lysyl}lysine], in test [1], the “heparin binding capacity (in words)” value is listed as “extremely high heparin capacity”, the “Heparin Capacity” value amounted to 459.1 ng and the Kd came to 937 nM. Further, the “pmol added to well … E. coli O111:B4” value in test [2] amounted to 552.79 pmol. The “EC50 (peptide concentration at which the growth inhibitory effect of LPS was reversed by 50%)” value with RAW 264.7 cells worked out at 0.45 ± 0.1 µg/mL. Also, in test [3], the “bactericidal activity (in words)” value is “highly bactericidal” and the “pmol added to well … E. coli J5” value amounted to 105.71 pmol. Moreover, the “pmol added to well … S. aureus” value in the test on Staphylococcus aureus is reported as 1,382.60 pmol.
Regarding IKISGKWKAFKRFLK [BPI.81], in test [1], the “Heparin Capacity” value is listed as 318.4 ng and the Kd was 335 nM. In addition, the “pmol added to well … E. coli O111:B4” value in test [2] is listed as 3,018.90 pmol. Moreover, in the test on RAW 264.7 cells, the “IC50 (peptide concentration at which RAW cell growth was inhibited by 50%)” value came to 14 ± 0.2 µg/mL and the “behaviour in the RAW 264.7 proliferation assay (in words)” value is recorded as “unable to reverse the growth inhibitory effect of LPS”. Further, in test [3], the “pmol added to well … E. coli J5” value came out at 283.84 pmol. The “pmol added to well … S. aureus” value with Staphylococcus aureus is 9,477.20 pmol.
In the case of IKISGKWKAQFDRFLK [BPI.76], in test [1], the “Heparin Capacity” value is 144.4 ng and the Kd was found to be 128 nM. Further, in test [2], the “pmol added to well … E. coli O111:B4” value is “b (no detectable activity up to 5 μg/well)”. Moreover, in the test with RAW 264.7 cells, the “EC50 (peptide concentration at which the growth inhibitory effect of LPS was reversed by 50%)” value was above 50 µg/mL and the “IC50 (peptide concentration at which RAW cell growth was inhibited by 50%)” value is on record as “— (No proliferation decrease up to 50 μg/ml)”. Besides, in test [3], the “activity of position 95 substitution variants (in words)” value is “dramatically reduced activity, to levels lower than the original peptide (BPI.2)” and the “pmol added to well … E. coli J5” value is on record as 10,519.55 pmol. In the test on Staphylococcus aureus, the “pmol added to well … S. aureus” value was “b (no detectable activity up to 5 μg/well)”.
Consider IKISGKWKAQFRFLK [BPI.73], for which, in test [1], the “heparin binding capacity (in words)” value is “extremely high heparin capacity”, the “Heparin Capacity” value is listed as 413.4 ng and the Kd is 227 nM. Besides, in test [2], the “pmol added to well … E. coli O111:B4” value is 3,290.60 pmol. Further, in the test with RAW 264.7 cells, the “EC50 (peptide concentration at which the growth inhibitory effect of LPS was reversed by 50%)” value amounted to 22 ± 10 µg/mL and the “IC50 (peptide concentration at which RAW cell growth was inhibited by 50%)” value is given as “— (No proliferation decrease up to 50 μg/ml)”. Besides, in test [3], the “activity of position 95 substitution variants (in words)” value was “improved activity compared with the alanine substitution species”; the “bactericidal activity (in words)” value is “highly bactericidal”; the “pmol added to well … E. coli J5” value turned out to be 57.28 pmol. Moreover, the “pmol added to well … S. aureus” value with Staphylococcus aureus was 2,313,133.50 pmol.
With IKISGKWKAQWRFLK [BPI.77], in test [1], the “Heparin Capacity” value turned out to be 581.7 ng and the Kd turned out to be 302 nM. Also, in test [2], the “pmol added to well … E. coli O111:B4” value is recorded as “b (no detectable activity up to 5 μg/well)”. For the same compound, in the test with RAW 264.7 cells, the “EC50 (peptide concentration at which the growth inhibitory effect of LPS was reversed by 50%)” value is 10 ± 32 µg/mL and the “IC50 (peptide concentration at which RAW cell growth was inhibited by 50%)” value is above 50 µg/mL. The “pmol added to well … E. coli J5” value in test [3] stood at 455.08 pmol. In the test on Staphylococcus aureus, the “pmol added to well … S. aureus” value is 1,684.35 pmol.
Turning to KWKAAARFLKKWKAQKRFLK [BPI.46], in test [1], the “heparin binding capacity (in words)” value is “extremely high heparin capacity”, the “Heparin Capacity” value came to 321.1 ng and the Kd was determined as 1070 nM. In addition, the “pmol added to well … E. coli O111:B4” value in test [2] is 2,970.26 pmol. For the same compound, in the test with RAW 264.7 cells, the “EC50 (peptide concentration at which the growth inhibitory effect of LPS was reversed by 50%)” value was 1.9 ± 1.9 µg/mL and the “IC50 (peptide concentration at which RAW cell growth was inhibited by 50%)” value stood at 18.8 ± 0.8 µg/mL. In addition, in test [3], the “bactericidal activity (in words)” value is “highly bactericidal” and the “pmol added to well … E. coli J5” value is 186.69 pmol. Further, the “pmol added to well … S. aureus” value in the test with Staphylococcus aureus is 3,810,752.30 pmol.

The values above are taken from patent US20040023884A1, “Biologically active peptides from functional domains of bactericidal/permeability-increasing protein and uses thereof” (priority 1993, published 2004).
